Assay results: US7279598B2, “Process for separating and recovering 3-hydroxypropionic acid and acrylic acid” (priority 2003, dated 2007)

Assay: Extraction of acrylic acid and 3-hydroxypropionic acid from aqueous stock solutions by ethyl acetate (partition between ethyl acetate and aqueous phase)
Assay type: physicochemical
Conditions: for Partition coefficient, D, average number of partition coefficients listed in Table 2: ethyl acetate / aqueous phase, average over the five stock solutions; for Partition Coefficient, D: ethyl acetate extractant phase / aqueous phase, 22° C.; for Separation Factor, S AA/3HP: partition coefficient of AA divided by that of 3HP
Procedure: The aqueous stock solutions comprise 30% 3-hydroxypropionic acid aqueous solution and 99% acrylic acid.
1. To a 15 ml centrifuge tube 5 ml of each acid stock solution and ethyl acetate extractant were added.
2. […] (rpm designates revolutions per minute).
4. The volumes of the aqueous and ethyl acetate extractant phases in the tubes were recorded.
The processing conditions and experimental results for the extraction of acrylic acid (AA) and 3-hydroxypropionic acid (3HP) by ethyl acetate are reported in the following Table 2.

[1] = Aqueous Stock Solution No. 1 (0.67 wt % AA, 1.34 wt % 3HP)
[2] = Aqueous Stock Solution No. 2 (3.33 wt % AA, 6.67 wt % 3HP)
[3] = Aqueous Stock Solution No. 3 (6.67 wt % AA, 13.34 wt % 3HP)
[4] = Aqueous Stock Solution No. 4 (9.99 wt % AA, 19.98 wt % 3HP)
[5] = Aqueous Stock Solution No. 5 (12.51 wt % AA, 25.05 wt % 3HP)

Row | SMILES | Partition coefficient, D, average number of partition coefficients listed in Table 2 | Partition Coefficient, D [1] | Partition Coefficient, D [2] | Partition Coefficient, D [3] | Partition Coefficient, D [4] | Partition Coefficient, D [5] | Separation Factor, S AA/3HP (Aqueous Stock Solution No. 1) | Separation Factor, S AA/3HP (Aqueous Stock Solution No. 2) | Separation Factor, S AA/3HP (Aqueous Stock Solution No. 3) | Separation Factor, S AA/3HP (Aqueous Stock Solution No. 4) | Separation Factor, S AA/3HP (Aqueous Stock Solution No. 5)
1 | O=C(O)CCO [3HP, 3-hydroxypropionic acid] | 0.274 | 0.18 | 0.21 | 0.27 | 0.30 | 0.41 | – | – | – | – | –
2 | C=CC(=O)O [AA, acrylic acid] | 2.572 | 2.96 | 2.97 | 2.66 | 2.36 | 1.91 | 16.55 | 14.18 | 9.79 | 7.81 | 4.66
